Measurements from paper PMC4724696 (Acta Pharmaceutica Sinica. B, 2016).

Key:
Format in all cases: cell-based
BxPC3 = assay: Cell proliferation assay; conditions: Homo sapiens, BXPC-3, 72 h, read-out: IC50 in cancer cell lines
[1] = tested on: acetylation of histones H3, H4 and tubulin in HCT-116 colorectal cancer cells; assay: Western Blot analysis of Ac-H3, Ac-H4 and Ac-tubulin; conditions: HCT-116 cells, various concentrations, 24 h
A375 = assay: Cell proliferation assay; conditions: Homo sapiens, A-375, 72 h, read-out: IC50 in cancer cell lines
SK-OV-3 = assay: Cell proliferation assay; conditions: Homo sapiens, SK-OV-3, 72 h, read-out: IC50 in cancer cell lines

O=C(CCCCCCC(=O)Nc1ccccc1)NO [SAHA, Vorinostat]
IC50 (BxPC3): 2.24 ± 0.61 µM | acetylation of histones H3, H4 and tubulin [1]: Increased acetylated histones and tubulin levels | IC50 (A375): 1.86 ± 0.42 µM | IC50 (SK-OV-3): 3.57 ± 0.74 µM
